From PMC9232612, “A phase 1b randomised controlled trial of a glucagon-like peptide-1 and glucagon receptor dual agonist IBI362 (LY3305677) in Chinese patients with type 2 diabetes” (Nature Communications, 2022)

Legend:
[1] = single dose range of 0.03-5 mg; earlier study, ref not given; cited from earlier work
From the text: page 21: safety follow-up visit. The safety data of this patient was collected and included in the analysis. We made this clear in the Results (Lines 210-213). 6. For the tables that present treatment emergent adverse events (Table 2 and Supplementary Table 2), do the numbers in the table correspond to the number of events, or the number of patients who experienced at least one event? Response: Safety data in this study were presented as number of patients (percentage). We made this clear in the footnotes (Fig. 2 and S3) of relevant tables and apologized for the neglect. 7. For Supplementary T ...

[2] = Immunogenicity: anti-IBI362 antibody (ADA) and neutralizing antibody; type: in vivo, human
From the text: (§1) Standard non-compartmental pharmacokinetics methods were used to analyze IBI362 plasma concentration data using Pkanalix 2020R1 (Lixoft, Antony, France). Secondary efficacy outcomes included change from baseline to week 12 in HbA1c, fasting plasma glucose (FPG), fasting insulin levels, change from baseline to week 12 in post-mixed-meal tolerance test (post-MTT) glucose, insulin, C peptide, GLP-1 and OXM levels, as well as seven-point self-measured blood glucose (SMBG) profile.
Safety analyses were done in the safety population (defined as all patients who received at least one dose of the study treatment). Pharmacokinetic analyses were done in the pharmacokinetic population (defined as all patients who received at least one dose of IBI362 and had at least one valid plasma concentration assessment). Efficacy analyses were done in the efficacy population (defined as all patients who received at least one dose of the study treatment and had baseline and at least one post-baseline HbA1c assessment). Immunogenicity analyses were done in the immunogenicity population (defined as all patients who received at least one dose of the study treatment and had at least one post-baseline ADA result).
IBI362 Innovent Biologics (Suzhou) Co., Ltd. CIBI362A101
[…] Within 1 hour before D57 administration in Week 9; […]

[3] = test system: Chinese patients with T2D; assay: Mixed-meal tolerance test (MTT) and fasting: total GLP-1; type: in vivo, human; conditions: week 12; patients receiving IBI362
Description: HbA1c (2200101, Bio-Rad, USA), blood glucose (05168791190, Roche Diagnostics, Germany), insulin (12017547122, Roche Diagnostics, Germany), C peptide (03184897190, Roche Diagnostics, Germany), total GLP-1 (GLP-1 [7–36] amide and its metabolite, GLP-1 [9–36] amide, 10-1278-01, Mercodia AB, Sweden) and OXM (AL-139, AnshLabs, USA) tests were performed according to the manufactures’ instruction manuals in a central laboratory (KingMed Diagnostics, Guangzhou, China). HbA1c was measured using a Bio-rad D-100 Haemoglobin Testing System (Bio-rad). Blood glucose was measured using a Roche Cobas c702 analyser (Roche Diagnostics). Insulin and C peptide were measured using a Roche […] analyser (Roche Diagnostics). GLP-1 and OXM were measured using a Tecan Infinite M Plex microplate reader (TECAN).
as §1, with “profile. […]” for “profile.”
3. […]
bag is added and mixed well. The time is counted from the first bite of eating. […]

patients who developed anti-IBI362 antibody ([2]; all IBI362 cohorts, n=24 (four patients)): 16.7%
neutralizing antibodies ([2]; post-baseline samples): No neutralizing antibodies were detected
Compound: CC(C)C[C@H](NC(=O)[C@H](CC(C)C)NC(=O)[C@H](Cc1c[nH]c2ccccc12)NC(=O)[C@H](CCC(=O)O)NC(=O)[C@@H](NC(=O)[C@H](Cc1ccccc1)NC(=O)[C@H](CCC(=O)O)NC(=O)[C@H](CCCCNC(=O)COCCOCCNC(=O)COCCOCCNC(=O)CC[C@H](NC(=O)CCCCCCCCCCCCCCCCCCC(=O)O)C(=O)O)NC(=O)[C@H](C)NC(=O)[C@H](CCCCN)NC(=O)[C@H](CCCCN)NC(=O)[C@H](CCC(=O)O)NC(=O)[C@H](CC(=O)O)NC(=O)[C@H](CC(C)C)NC(=O)[C@H](Cc1ccc(O)cc1)NC(=O)[C@H](CCCCN)NC(=O)[C@H](CO)NC(=O)[C@H](Cc1ccc(O)cc1)NC(=O)[C@H](CC(=O)O)NC(=O)[C@H](CO)NC(=O)[C@@H](NC(=O)[C@H](Cc1ccccc1)NC(=O)[C@@H](NC(=O)CNC(=O)[C@H](CCC(N)=O)NC(=O)C(C)(C)NC(=O)[C@@H](N)Cc1c[nH]cn1)[C@@H](C)O)[C@@H](C)O)C(C)C)C(=O)N[C@@H](CCC(=O)O)C(=O)NCC(=O)NCC(=O)N1CCC[C@H]1C(=O)N[C@@H](CO)C(=O)N[C@@H](CO)C(=O)NCC(N)=O [IBI362]
pharmacokinetic profile [1]: linear
post-MTT GLP-1 excursion [3]: markedly suppressed
